Laboratory results taken from ChEMBL document CHEMBL1201862, “PubChem BioAssay data set” (2004).
Activity calls are given as the source filed them.

How the values were obtained:
[1] = biological target: T1, Intestinal-type alkaline phosphatase (Mus musculus, UniProt P24822); experiment: PubChem AID 488875; format: functional
[2] = biological target: T2, Intestinal-type alkaline phosphatase (Homo sapiens, UniProt P09923); experiment: activation of human intestinal alkaline phosphatase – biochemical, luminescent, uHTS hits, set 2, dose response (AID 488817); format: functional;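 also: potency of activators that raise enzyme activity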
T2 sequence (P09923 whole entry): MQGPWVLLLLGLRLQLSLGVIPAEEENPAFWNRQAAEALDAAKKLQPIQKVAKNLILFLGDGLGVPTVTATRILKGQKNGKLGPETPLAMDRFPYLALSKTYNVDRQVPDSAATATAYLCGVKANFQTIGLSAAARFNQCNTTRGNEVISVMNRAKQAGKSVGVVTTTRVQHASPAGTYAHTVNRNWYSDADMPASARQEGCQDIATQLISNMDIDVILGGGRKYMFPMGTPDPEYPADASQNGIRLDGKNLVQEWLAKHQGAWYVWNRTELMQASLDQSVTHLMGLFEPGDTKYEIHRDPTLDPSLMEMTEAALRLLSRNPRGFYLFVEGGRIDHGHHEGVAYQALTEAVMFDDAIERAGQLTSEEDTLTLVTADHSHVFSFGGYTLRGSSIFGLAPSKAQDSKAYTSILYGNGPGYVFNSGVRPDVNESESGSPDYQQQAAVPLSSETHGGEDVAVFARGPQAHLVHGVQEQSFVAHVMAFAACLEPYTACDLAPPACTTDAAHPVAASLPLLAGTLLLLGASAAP

[3] = biological target: T2, Intestinal-type alkaline phosphatase; experiment: human intestinal alkaline phosphatase activators, dose response, biochemical, luminescence, uHTS hits (AID 463120); format: functional
[4] = biological target: T3, Alkaline phosphatase, tissue-nonspecific isozyme (Homo sapiens, UniProt P05186); experiment: activation of tissue-nonspecific alkaline phosphatase – biochemical, TNAP isozyme, human IAP uHTS hits, selectivity assay for human IAP activator project, dose response (AID 488886); format: functional;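 also: potency of compounds raising TNAP activity as a selectivity check on IAP activators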
T3 sequence (P05186 whole entry): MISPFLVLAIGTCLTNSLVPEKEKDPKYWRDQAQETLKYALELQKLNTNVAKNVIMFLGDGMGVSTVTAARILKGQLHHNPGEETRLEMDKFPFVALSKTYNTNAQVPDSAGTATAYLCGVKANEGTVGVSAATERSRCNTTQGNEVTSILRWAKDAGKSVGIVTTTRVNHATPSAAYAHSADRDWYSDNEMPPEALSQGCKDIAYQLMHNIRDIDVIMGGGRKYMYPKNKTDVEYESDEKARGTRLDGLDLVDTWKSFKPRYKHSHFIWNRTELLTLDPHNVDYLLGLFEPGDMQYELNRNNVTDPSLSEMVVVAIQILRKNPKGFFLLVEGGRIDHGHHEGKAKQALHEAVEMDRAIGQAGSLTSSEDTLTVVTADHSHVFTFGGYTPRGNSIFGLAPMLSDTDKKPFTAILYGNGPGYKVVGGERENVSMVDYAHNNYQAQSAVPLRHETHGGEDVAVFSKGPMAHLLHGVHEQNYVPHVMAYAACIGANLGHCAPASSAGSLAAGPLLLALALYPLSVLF

Streptokinase A = biological target: T4, Streptokinase A (Streptococcus pyogenes serotype M1, UniProt P10520); experiment: viability-normalized secreted streptokinase activity reduction – plasminogen activation absorbance, OD405, dose response (AID 1914); format: functional, Streptococcus pyogenes M1 GAS;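 also: secreted streptokinase activity via plasminogen activation per viability signal from cell pellet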
T4 sequence (P10520 whole entry): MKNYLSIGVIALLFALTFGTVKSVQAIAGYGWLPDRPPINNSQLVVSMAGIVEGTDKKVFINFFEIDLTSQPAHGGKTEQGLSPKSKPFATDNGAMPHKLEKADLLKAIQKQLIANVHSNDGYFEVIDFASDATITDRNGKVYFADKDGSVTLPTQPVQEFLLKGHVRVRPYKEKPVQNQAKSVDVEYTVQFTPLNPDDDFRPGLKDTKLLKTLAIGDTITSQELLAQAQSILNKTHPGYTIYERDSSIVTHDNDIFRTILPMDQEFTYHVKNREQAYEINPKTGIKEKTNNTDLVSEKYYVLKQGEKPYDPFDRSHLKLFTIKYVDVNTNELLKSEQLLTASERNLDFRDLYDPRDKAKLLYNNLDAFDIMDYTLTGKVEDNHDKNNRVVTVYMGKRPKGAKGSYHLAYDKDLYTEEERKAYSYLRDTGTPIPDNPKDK

[5] = biological target: T5, Dual specificity protein phosphatase 3 (Homo sapiens, UniProt P51452); experiment: VHR1 phosphatase inhibitors, primary screen, biochemical, absorbance, uHTS (AID 1654)
T5 sequence (P51452 whole entry, the tested form may be a part): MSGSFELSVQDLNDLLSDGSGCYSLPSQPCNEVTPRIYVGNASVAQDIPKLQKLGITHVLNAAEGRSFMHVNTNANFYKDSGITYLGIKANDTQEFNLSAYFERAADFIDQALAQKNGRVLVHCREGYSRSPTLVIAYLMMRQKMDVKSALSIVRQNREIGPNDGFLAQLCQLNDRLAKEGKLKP

[6] = biological target: T6, Carboxy-terminal domain RNA polymerase II polypeptide A small phosphatase 1 (Homo sapiens, UniProt Q9GZU7); experiment: CTDSP1 inhibitors, concentration-response, biochemical, absorbance readout, ultra-high-throughput screen actives (AID 540297); format: functional
T6 sequence (Q9GZU7 whole entry): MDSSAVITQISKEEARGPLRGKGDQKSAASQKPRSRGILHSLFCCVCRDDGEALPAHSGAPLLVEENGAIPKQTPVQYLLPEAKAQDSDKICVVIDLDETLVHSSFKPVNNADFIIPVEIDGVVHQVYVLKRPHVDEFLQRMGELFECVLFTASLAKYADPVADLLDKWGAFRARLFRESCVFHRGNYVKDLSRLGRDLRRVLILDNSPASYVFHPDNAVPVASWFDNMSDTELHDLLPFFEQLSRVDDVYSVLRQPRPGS

[7] = biological target: T5, Dual specificity protein phosphatase 3; experiment: VHR1 phosphatase inhibitors, biochemical (AID 1878)
[8] = biological target: T7, Dual specificity protein phosphatase 6 (Rattus norvegicus, UniProt Q64346); experiment: inhibition of rat DUSP6 enzyme activity – biochemical, in vitro, primary screen (AID 425)
T7 sequence (Q64346 whole entry): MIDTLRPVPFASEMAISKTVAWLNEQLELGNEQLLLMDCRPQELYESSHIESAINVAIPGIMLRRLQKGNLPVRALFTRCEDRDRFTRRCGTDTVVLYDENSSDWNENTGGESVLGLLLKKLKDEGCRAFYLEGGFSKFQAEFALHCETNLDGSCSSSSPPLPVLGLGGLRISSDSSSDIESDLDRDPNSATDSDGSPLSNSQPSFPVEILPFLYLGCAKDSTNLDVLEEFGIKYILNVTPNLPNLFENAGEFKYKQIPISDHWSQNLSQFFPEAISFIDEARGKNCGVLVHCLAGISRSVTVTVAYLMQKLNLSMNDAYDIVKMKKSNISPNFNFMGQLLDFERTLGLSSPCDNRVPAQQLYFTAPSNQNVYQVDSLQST

[9] = biological target: T2, Intestinal-type alkaline phosphatase; experiment: inhibition of human intestinal alkaline phosphatase – biochemical, dose response (AID 488876); format: functional
[10] = biological target: T1, Intestinal-type alkaline phosphatase; experiment: PubChem AID 488785; format: functional
[11] = biological target: T3, Alkaline phosphatase, tissue-nonspecific isozyme; experiment: TNAP enzyme inhibition by screening hits, dose response, selectivity assay for mouse IAP inhibitor project, biochemical, human TNAP, uHTS hits (AID 488906); format: functional
[12] = Trypanosoma cruzi growth suppression in host cells – NIH3T3 host cells, beta-gal luminescence, confirmation (AID 2044); format: functional, cell-based;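 also: intracellular parasites grown in NIH/3T3 mouse fibroblasts as host cells; luminescent beta-galactosidase reporter signal from transgenic T. cruzi replicating inside host cells; inhibitors lower the luminescence signal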
[13] = Luminescence Cell-Based/Microorganism Confirmation at Dose of Inhibitors of Trypanosoma cruzi Infection. [Related pubchem assays: 1885, 1968 ]; format: functional
[14] = NIH3T3 cell viability loss – ATP luminescence, mouse fibroblasts, counter-screen, dose response (AID 2010); format: functional, cell-based;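 also: cells exposed to compound for about 90 hours before reading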
[15] = T. cruzi infection blockers in NIH3T3 cells – beta-gal luminescence, NIH3T3 host cells, confirmation (AID 2630); format: functional, cell-based; conditions: Mus musculus
[16] = Luminescence Cell-Based Secondary HTS screen to identify cytotoxic compounds of NIH3T3 cells. [Related pubchem assays: 1885, 1968 ]; format: functional
[17] = biological target: Lysine-specific demethylase 4C (Homo sapiens, UniProt Q9H3R0); experiment: inhibition of JMJD2C H3K9me3 demethylation – biochemical, DELFIA europium, cherry-picked samples, dose response (AID 488835); format: functional
Sequence of Lysine-specific demethylase 4C (Q9H3R0 whole entry): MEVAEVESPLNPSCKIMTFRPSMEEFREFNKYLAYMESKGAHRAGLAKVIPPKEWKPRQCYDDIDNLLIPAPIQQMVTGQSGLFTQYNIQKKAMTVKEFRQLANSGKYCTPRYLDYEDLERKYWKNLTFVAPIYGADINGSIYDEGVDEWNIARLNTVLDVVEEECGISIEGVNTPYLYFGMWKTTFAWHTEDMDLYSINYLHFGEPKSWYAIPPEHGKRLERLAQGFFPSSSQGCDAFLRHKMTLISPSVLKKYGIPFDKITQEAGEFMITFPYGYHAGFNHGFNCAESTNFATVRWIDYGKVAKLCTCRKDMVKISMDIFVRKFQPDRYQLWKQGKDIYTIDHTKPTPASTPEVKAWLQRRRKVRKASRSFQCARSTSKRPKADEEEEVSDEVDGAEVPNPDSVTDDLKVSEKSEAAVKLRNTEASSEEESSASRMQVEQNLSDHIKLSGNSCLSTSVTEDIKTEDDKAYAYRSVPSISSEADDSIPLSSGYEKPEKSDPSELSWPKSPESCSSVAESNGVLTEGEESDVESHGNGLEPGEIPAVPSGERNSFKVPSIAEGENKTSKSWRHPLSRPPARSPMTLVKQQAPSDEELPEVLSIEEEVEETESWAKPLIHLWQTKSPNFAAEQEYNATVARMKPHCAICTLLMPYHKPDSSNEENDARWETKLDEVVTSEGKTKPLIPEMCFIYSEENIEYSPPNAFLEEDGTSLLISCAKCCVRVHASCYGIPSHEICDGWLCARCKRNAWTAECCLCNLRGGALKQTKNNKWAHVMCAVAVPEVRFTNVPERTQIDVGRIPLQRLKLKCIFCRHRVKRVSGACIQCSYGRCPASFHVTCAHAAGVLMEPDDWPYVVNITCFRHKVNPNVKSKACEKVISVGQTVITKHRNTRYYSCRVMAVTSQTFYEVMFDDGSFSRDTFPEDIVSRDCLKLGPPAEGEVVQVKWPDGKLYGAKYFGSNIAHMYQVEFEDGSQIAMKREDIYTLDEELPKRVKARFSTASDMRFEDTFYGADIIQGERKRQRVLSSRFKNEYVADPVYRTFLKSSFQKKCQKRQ

Phospholipase D2 = Phospholipase D2 (Homo sapiens, UniProt O14939); experiment: cellular phospholipase D2 inhibition IC50 – cell-based, dose response (AID 602147); format: functional;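 also: cellular assay in HEK293 cells overexpressing GFP-tagged PLD2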
Sequence of Phospholipase D2 (O14939 whole entry): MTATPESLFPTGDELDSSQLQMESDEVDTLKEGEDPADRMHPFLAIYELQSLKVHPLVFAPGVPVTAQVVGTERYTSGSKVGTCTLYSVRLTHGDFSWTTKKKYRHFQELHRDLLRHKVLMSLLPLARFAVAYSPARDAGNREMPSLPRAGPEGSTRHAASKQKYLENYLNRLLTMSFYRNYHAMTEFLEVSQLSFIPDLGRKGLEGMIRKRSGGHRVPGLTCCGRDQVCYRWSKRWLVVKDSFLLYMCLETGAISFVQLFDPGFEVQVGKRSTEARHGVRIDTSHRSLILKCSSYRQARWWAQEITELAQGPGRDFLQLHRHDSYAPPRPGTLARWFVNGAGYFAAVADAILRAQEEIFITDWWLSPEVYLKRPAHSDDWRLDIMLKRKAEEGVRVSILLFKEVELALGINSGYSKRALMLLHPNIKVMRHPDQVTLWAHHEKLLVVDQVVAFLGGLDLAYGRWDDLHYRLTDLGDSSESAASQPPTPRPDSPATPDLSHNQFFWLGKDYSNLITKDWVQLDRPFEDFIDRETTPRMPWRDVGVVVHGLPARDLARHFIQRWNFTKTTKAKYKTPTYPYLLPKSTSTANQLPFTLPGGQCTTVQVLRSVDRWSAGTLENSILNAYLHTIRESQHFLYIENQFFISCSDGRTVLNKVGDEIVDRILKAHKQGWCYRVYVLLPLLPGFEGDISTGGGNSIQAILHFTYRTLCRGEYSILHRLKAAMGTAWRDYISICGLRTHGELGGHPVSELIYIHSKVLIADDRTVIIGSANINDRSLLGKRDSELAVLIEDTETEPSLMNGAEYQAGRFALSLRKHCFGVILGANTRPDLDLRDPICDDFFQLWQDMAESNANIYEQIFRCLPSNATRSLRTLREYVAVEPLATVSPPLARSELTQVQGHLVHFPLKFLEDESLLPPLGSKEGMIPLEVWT

T1 sequence (P24822 whole entry): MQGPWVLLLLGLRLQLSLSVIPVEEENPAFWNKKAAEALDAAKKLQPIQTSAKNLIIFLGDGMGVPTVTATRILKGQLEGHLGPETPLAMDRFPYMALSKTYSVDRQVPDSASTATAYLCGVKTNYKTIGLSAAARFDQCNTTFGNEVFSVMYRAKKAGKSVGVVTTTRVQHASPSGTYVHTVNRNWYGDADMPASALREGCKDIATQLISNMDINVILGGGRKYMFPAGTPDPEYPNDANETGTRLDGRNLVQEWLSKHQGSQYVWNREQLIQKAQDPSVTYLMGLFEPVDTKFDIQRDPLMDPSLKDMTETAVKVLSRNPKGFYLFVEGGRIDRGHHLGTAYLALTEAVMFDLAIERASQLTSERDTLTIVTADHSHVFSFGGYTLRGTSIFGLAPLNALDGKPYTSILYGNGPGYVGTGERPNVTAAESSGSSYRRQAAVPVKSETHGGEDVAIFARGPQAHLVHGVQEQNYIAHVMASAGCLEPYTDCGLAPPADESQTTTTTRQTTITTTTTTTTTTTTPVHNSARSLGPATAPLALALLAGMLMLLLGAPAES

## CCC(NC(=S)NC1CCCCC1)c1ccc(C(C)C)cc1 (centres undefined)
[1]
  EC50: 60.1 µM (active)
[2]
  EC50: 52.4 µM (active)
[3]
  EC50: 81.2 µM (active)
[4]
  EC50: 54.3 µM (active)
Streptokinase A
  EC50: 43.4 µM (active)

## CN1C(=O)/C(=C2\SC(=S)N(CCCCCC(=O)O)C2=O)c2ccccc21
[5]
  IC50: 5.97 µM (active)
[6]
  IC50: 0.836 µM (active)
[7]
  IC50: 2.4 µM (active)
[8]
  IC50: > 158 µM (not active)

## CCn1nc(C)c(CN2CCC(C(=O)Nc3cccc(-c4cccc(Cl)c4)c3)CC2)c1C
[9]
  IC50: 4.61 µM (active)
[10]
  IC50: 1.87 µM (active)
[11]
  IC50: 41 µM (active)

## CCOc1ccc2oc(=O)cc(CN3CCN(Cc4ccccc4)CC3)c2c1
[12]
  EC50: 0.216 µM (active)
[13]
  EC50: 0.903 µM (inconclusive)
[14]
  EC50: > 30 µM (not active)
[15]
  EC50: 0.903 µM (active)
[16]
  EC50: > 195 µM (inconclusive)

## COc1ccccc1N1CCN(C(=O)CSc2nc(C)cc(O)n2)CC1
[17]
  AC50: 10.1 µM (active)

## O=C(NCCN1CCC2(CC1)C(=O)NCN2c1ccc(F)c(F)c1)c1cc2cc(F)ccc2[nH]1
Phospholipase D2
  IC50: 0.097 µM (active)
